Experiments:
[1] = target: T1, human P2X3 receptor (homomeric P2X3 channels) (Homo sapiens, UniProt P56373); experiment: FlexStation calcium fluorescence assay, homomeric P2X3 channels (HEK-hP2X3 cells); type: cell-based; conditions: for Selectivity P2X3/P2X2/3: potency ratio P2X3 over P2X2/3 from pIC50s; for IC50: HEK293 cells stably transfected with human P2X3, agonist 1 μM α,β-meATP, highest concentration tested 10 μM, read-out: Average pIC50 P2X3 (converted); for Selectivity, X = S: potency ratio P2X3 over P2X2/3
T1 construct: expressed in transfected cells; host or cells: HEK293 human embryonic kidney cells (HEK-hP2X3)
T1 sequence (P56373 1-397): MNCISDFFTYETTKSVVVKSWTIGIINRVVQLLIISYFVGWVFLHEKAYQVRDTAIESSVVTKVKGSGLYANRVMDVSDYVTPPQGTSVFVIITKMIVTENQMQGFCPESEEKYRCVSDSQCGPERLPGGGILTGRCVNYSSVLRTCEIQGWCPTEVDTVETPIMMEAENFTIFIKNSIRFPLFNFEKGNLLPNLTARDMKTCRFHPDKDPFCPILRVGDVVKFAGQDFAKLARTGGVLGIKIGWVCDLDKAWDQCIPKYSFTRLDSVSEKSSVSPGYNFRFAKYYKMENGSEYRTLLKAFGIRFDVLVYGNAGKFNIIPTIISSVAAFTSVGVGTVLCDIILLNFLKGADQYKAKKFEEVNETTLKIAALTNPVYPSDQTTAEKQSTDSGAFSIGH
Method: (§1) 1321N1 human astrocytoma and HEK293 human embryonic kidney cells were stably transfected with human P2X2 and P2X3 receptor subunits to form heteromeric P2X2/3 channels and passaged in flasks. Additionally, HEK293 cells were stably transfected with human P2X3 receptor subunits to form homomeric P2X3 channels.
(§2) Approximately 24 hours before the FlexStation calcium fluorescence experiment, cells were released from their flasks, centrifuged and re-suspended in nutrient medium. The cells were aliquoted into black-wall, clear-bottom 96 well plates at a density of 25,000 cells per well and incubated overnight in a humidified, CO2-enriched (5%) atmosphere at 37° C.
(§3) On the day of the experiment, cells were washed with assay buffer (calcium- and magnesium-free Hank's balanced salt solution, 20 mM HEPES, 2 mM CaCl2; AB) and loaded with 4 μM Fluo-4 (P2X2/3) or Calcium 6 (Molecular Devices, according to manufacturer's instructions; P2X3) calcium-sensitive fluorescent dye in 100 μL AB.
(§4) After 1 hour of dye loading at 37° C., 1321N1-hP2X2/3 cells were washed two times with AB and test compound or vehicle added to each well in a total volume of 150 μL AB. HEK-hP2X3 cells were not washed because the Calcium 6 dye kit includes an extracellular dye that quenches unabsorbed Calcium 6 dye; test compound or vehicle were added directly to the assay plates to achieve the appropriate concentration of test compound in a total volume of 150 μL AB.
(§5) After 20 minutes incubation at RT and protected from light, the assay plates were loaded into the FlexStation microplate reader and baseline fluorescence measured with an excitation wavelength of 485 nm and emission wavelength readings centered at 525 nm (515 nm cut off).
(§6) The agonist was dispensed by the FlexStation during fluorescence measurement to construct agonist activation and antagonist inhibition curves. The final agonist concentration for inhibition was 1 μM α,β-meATP for P2X3 and 3 μM ATP for P2X2/3. Peak fluorescence was measured and curves generated using a four parameter nonlinear regression equation.

[2] = target: T2, human P2X2/3 receptor (heteromeric P2X2/3 channels) (Homo sapiens, UniProt P56373+Q9UBL9); experiment: FlexStation calcium fluorescence assay, heteromeric P2X2/3 channels (1321N1-hP2X2/3 cells); type: cell-based; conditions: agonist 3 μM ATP, highest concentration tested 10 μM, read-out: Average pIC50 P2X2/3 (converted)
T2 construct: expressed in transfected cells; host or cells: 1321N1 human astrocytoma cells (1321N1-hP2X2/3)
T2 sequence (P56373 1-397): T1 sequence (P56373 1-397)
T2 sequence (Q9UBL9 1-471): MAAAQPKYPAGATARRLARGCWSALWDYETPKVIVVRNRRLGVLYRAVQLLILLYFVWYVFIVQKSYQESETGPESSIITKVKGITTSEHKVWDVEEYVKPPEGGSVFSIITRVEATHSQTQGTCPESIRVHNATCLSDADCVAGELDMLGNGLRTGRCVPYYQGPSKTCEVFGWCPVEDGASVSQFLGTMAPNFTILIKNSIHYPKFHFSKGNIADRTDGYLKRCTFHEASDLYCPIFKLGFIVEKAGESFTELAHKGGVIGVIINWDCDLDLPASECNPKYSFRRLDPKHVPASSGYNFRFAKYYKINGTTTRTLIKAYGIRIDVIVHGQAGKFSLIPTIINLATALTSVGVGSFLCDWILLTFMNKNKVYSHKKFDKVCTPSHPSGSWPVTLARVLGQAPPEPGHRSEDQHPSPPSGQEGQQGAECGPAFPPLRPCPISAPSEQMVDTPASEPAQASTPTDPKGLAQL
Method: as §1, §2, §3, §4, §5, §6

Row | SMILES | Selectivity P2X3/P2X2/3 [1] | IC50 [1] [nM] | IC50 [2] [nM] | Selectivity, X = S [1]
1 | COc1cc(C(C)C)c(Sc2cnc(N)nc2N)cc1I [Compound 4] | 48 | – | – | –
2 | COc1nc(C(C)C)c(Oc2cnc(N)nc2N)nc1N(C)C [Compound 45] | >6.0 | 1580 | > 10000 | –
3 | COc1nc(C(C)C)c(Oc2cnc(N)nc2N)cc1C(F)(F)F [Compound 18] | 23 | – | – | –
4 | COc1nc(C(C)C)c(Nc2cnc(N)nc2N)cc1C(F)(F)F [Compound 35] | 198 | 39.8 | 7940 | –
5 | COc1cc(C(C)C)c(Nc2cnc(N)nc2N)cc1S(C)(=O)=O [Compound 37] | >73 | 126 | > 10000 | –
6 | COc1nc(C(C)C)c(Oc2cnc(N)nc2N)cc1SC(F)(F)F [Compound 47] | 2.1 | 631 | 1260 | –
7 | COc1nc(C(C)C)c(Oc2cnc(N)nc2N)cc1SC [Compound 41] | 41 | 12.6 | 501 | –
8 | COc1nc(C(C)C)c(Oc2cnc(N)nc2N)cc1[S+](C)[O-] (stereo not drawn) [Compound 42] | >33 | 316 | > 10000 | –
9 | COc1cc(C(C)C)c(Sc2cnc(N)nc2N)cc1I [B, X = S] | – | – | – | 48
10 | COc1nc(C(C)C)c(Sc2cnc(N)nc2N)cc1SC(F)(F)F [Compound 31] | >2.5 | 3980 | > 10000 | –
11 | COc1nc(C(C)C)c(Sc2cnc(N)nc2N)cc1S(N)(=O)=O [Compound 27] | 7.3 | 79.4 | 631 | –
12 | COc1cc(C(C)C)c(Sc2cnc(N)nc2N)cc1C(=O)O [Compound 12] | >2 | – | – | –
13 | CCc1cc(OC)c(I)cc1Sc1cnc(N)nc1N [Compound 21] | >24 | 398 | > 10000 | –
14 | COc1cc(C(C)C)c(Sc2cnc(N)nc2N)cc1S(N)(=O)=O [Compound 3] | >67 | – | – | –
15 | COc1cc(C(C)C)c(Sc2cnc(N)nc2N)cc1Cl [Compound 9] | >56 | – | – | –
16 | COc1nc(C(C)C)c(Oc2cnc(N)nc2N)cc1C#N [Compound 17] | >10 | – | – | –
17 | C#Cc1cc(Oc2cnc(N)nc2N)c(C(C)C)nc1OC [Compound 19] | 28 | – | – | –
18 | COc1cc(C(C)C)c(S(=O)(=O)c2cnc(N)nc2N)cc1OC [Comparative Compound 2, reference compound] | – | > 10000 | > 10000 | –
19 | COc1ccc(Sc2cnc(N)nc2N)c(C(C)C)n1 [Compound 23] | >3 | 3980 | > 10000 | –
20 | COc1nc(C(C)C)c(Sc2cnc(N)nc2N)cc1C(F)(F)F [Compound 34] | 8.3 | 794 | 6310 | –
21 | COc1nc(C(C)C)c(Sc2cnc(N)nc2N)cc1C#N [Compound 26] | >1 | 7940 | > 10000 | –
22 | COc1nc(C(C)C)c(Sc2cnc(N)nc2N)cc1S(C)(=O)=O [Compound 25] | >52 | 200 | > 10000 | –

Row | SMILES | Selectivity P2X3/P2X2/3 [1] | IC50 [1] [nM] | IC50 [2] [nM] | Selectivity, X = S [1]
23 | COc1cc(Nc2cnc(N)nc2N)c(C(C)C)cc1OC [Compound 30] | 28 | 63.1 | 1580 | –
24 | COc1nc(C(C)C)c(Oc2cnc(N)nc2N)cc1S(C)(=O)=O [Compound 16] | >145 | – | – | –
25 | COc1nc(C(C)C)c(Oc2cnc(N)nc2N)nc1C(F)(F)F [Compound 46] | 10 | 100 | 1000 | –
26 | COc1nc(C(C)C)c(Sc2cnc(N)nc2N)cc1Cl [Compound 38] | >48 | 200 | > 10000 | –
27 | C#Cc1cc(Sc2cnc(N)nc2N)c(C(C)C)nc1OC [Compound 29] | 3.9 | 50.1 | 200 | –
28 | COc1cc(C(C)C)c([S+]([O-])c2cnc(N)nc2N)cc1OC (stereo not drawn) [Comparative Compound 1, reference compound] | – | > 10000 | > 10000 | –
29 | CC#Cc1cc(Sc2cnc(N)nc2N)c(C(C)C)nc1OC [Compound 28] | 7.2 | 794 | 6310 | –
30 | COc1cc(C(C)C)c(Sc2cnc(N)nc2N)cc1Br [Compound 8] | >47 | – | – | –
31 | COc1nc(C(C)C)c(Nc2cnc(N)nc2N)cc1Cl [Compound 32] | 34 | 10 | 398 | –
32 | COc1cc(C(C)C)c(Sc2cnc(N)nc2N)cc1S(C)(=O)=O [C, X = S] | – | – | – | >18
33 | COc1nc(C(C)C)c(Oc2cnc(N)nc2N)cc1Cl [Compound 33] | 26 | 25.1 | 794 | –
34 | COc1cc(Sc2cnc(N)nc2N)c(C(C)C)cc1OC [Compound 1] | >100 | – | – | greater than 100
35 | COc1cc(C(C)C)c(Sc2cnc(N)nc2N)cc1-c1nnn[nH]1 [Compound 11] | >58 | – | – | –
36 | COc1cc(C(C)C)c(Sc2cnc(N)nc2N)cc1Cl [D, X = S] | – | – | – | >50
37 | COc1ccc(Oc2cnc(N)nc2N)c(C(C)C)n1 [Compound 14] | >7.1 | – | – | –
38 | COc1cc(C(C)C)c(Sc2cnc(N)nc2N)cc1C [Compound 7] | >34 | – | – | –
39 | C#Cc1cc(Sc2cnc(N)nc2N)c(C(C)C)cc1OC [Compound 5] | 97 | – | – | –
40 | COc1cc(Oc2cnc(N)nc2N)c(C(C)C)nc1OC [Compound 13] | 5.2 | – | – | –
41 | COc1nc(C(C)C)c(Oc2cnc(N)nc2N)cc1S(N)(=O)=O [Compound 20] | 19 | – | – | –
42 | CC#Cc1cc(Sc2cnc(N)nc2N)c(C(C)C)cc1OC [Compound 6] | >13 | – | – | –
43 | COc1cc(Sc2cnc(N)nc2N)c(C(C)C)cc1OC [A, X = S] | – | – | – | >100
44 | COc1cc(C(C)C)c(Sc2cnc(N)nc2N)cc1S(C)(=O)=O [Compound 2] | >18 | – | – | –
